Consider six compounds from US5693812A, “Polymorphic forms of an angiotensin II antagonist” (priority 1996, dated 1997).

“Also recorded” adds a separate entry of the source. Where a name gives a salt, the structure may show the parent alone.

Assay type in all cases: physicochemical
Series [1] in a line: Heat of solution by solution calorimetry (Setaram C-80). The conditions noted are these: DMSO, 30° C., potassium salt. Here is the method:
The heat of solution of different crystal forms of 3-[2'-(N-benzoyl)sulfonamidobiphenyl-4-yl]methyl-5,7-dimethyl-2-ethyl-3H-imidazo[4,5-b]pyridine potassium salt were studied at 30° C. The heat of solution is a measure of the crystal lattice energy. […] Heats of solution had to be conducted in a solvent which dissolved the samples quickly without conversion to another polymorph. This really limited solvents which could be used. Dimethylsulfoxide was chosen for this reason. The heats of solution therefore have contributions from the lattice energy of the solid as well as heat of dilution of lattice water in dimethylsulfoxide. The calorimeter therefore produces a complex signal that has an exothermic contribution from the water and an additional contribution from the energy required to dissolve the crystal. […] Additional heats of solution were determined in a mixed solvent system of 88% dimethylsulfoxide and 12% water. This system was used to minimize the contribution of moisture to the heat of solution.
(§1) The crystal forms were characterized and evaluated by measuring the heats of solution or solution calorimetry, solubility data, x-ray powder diffraction patterns (XRPD), differential scanning calorimetry (DSC) and thermogravimetric analysis (TGA). Heats of solution at 30° C. were obtained in the Setaram C-80 calvet calorimeter with sample size of 7-13 mg dissolved into 5 ml of 88% DMSO 12% water for a final concentration of 1.4-2.6 mg/ml. XRPD patterns were recorded using an automated Siemens X-ray diffractometer with copper tube K alpha radiation. DSC and TGA were conducted using a Perkin Elmer series 7 instrument with a scan rate of 10° C./min over the temperature range of 30°-300° C.

Series [2] is described as follows: Thermogravimetric analysis (TGA) weight loss / water content. The conditions noted are these: potassium salt; for hydration state: TGA. Here is the method:
as §1, with “30°-300° C. Utilizing these techniques the thermodynamic stability of the polymorphs of 3-[2'-(N-benzoyl)sulfonamidobiphenyl-4-yl]methyl-5,7-dimethyl-2-ethyl-3H-imidazo[4,5-b]pyridine potassium salt was determined.” for “30°-300° C.”
Step K: Preparation of 3-[2'-(N-Benzyl)sulfonamidobiphenyl-4-yl]methyl-5,7-dimethyl-2-ethyl-3H-imidazo[4,5-b]pyridine potassium salt--(Forms I, Id and W) [drawing 13] In a 72-L four-necked flask fitted with an overhead stirrer and a reflux condenser, 3-[2'-(N-benzyl)sulfonamidobiphenyl-4-yl]methyl-5,7-dimethyl-2-ethyl-3H-imidazo[4,5-b]pyridine 1 (5.04 kg, 9.6 mol), methanol (14.5 L) and water (2.5 L) are mixed. The slurry is warmed to 62° C. under a nitrogen atmosphere and 1.94M potassium hydroxide (4.96 L, 9.61 mol) is added to the slurry at 62° C. over 1.5 hours to provide a homogeneous solution. Isopropyl acetate (13.83 L) is then added at 65° C. and the mixture is warmed to 70° C. The homogeneous solution is filtered at 70° C. to remove any particulates that are present. The filtrate is diluted with isopropyl acetate (1.3 L), methanol (0.6 L) and water (0.1 L). […] The homogeneous mixture is cooled to 52° C. over 2 hours, whereupon potassium salt seed of form "I" (140 g) is added. This mixture becomes cloudy after 30 min. The mixture is aged for 10 hours at 52° C. The white slurry is cooled to 48° C. over 1 hour and stirred for 3 hours. Finally, the crystallization mixture is cooled to 0° C. at a rate of 1° C./12.5 min. and aged for 2 hours at 0° C. […] The solid is centrifuged at 0° C. and displacement-washed with a mixture of 2:2:1 cold (0° C.) isopropyl acetate/methanol/water (5.65 L) followed by isopropyl acetate (2.3 L). The solid is semi-dried to a TG of 10-15% by spin drying. The mother liquors contain 21 wt % of 3-[2'-(N-benzyl)sulfonamidobiphenyl-4-yl]methyl-5,7-dimethyl-2-ethyl-3H-imidazo[4,5-b]pyridine potassium salt. At this stage, the crystal form of the product is form "W". The product is powdered by passing through a screen (size=12). The solid is dried by passing dry nitrogen over the solid under vacuum at 22° C. for 5 hours to yield 4.55 kg of 3-[2'-(N-benzyl)sulfonamidobiphenyl-4-yl]methyl-5,7-dimethyl-2-ethyl-3H-imidazo[4,5-b]pyridine potassium salt as the form "I" with a purity of 99.7% (assay-HClO4 titration) and TG of 7-10%. Generally, the wet cake consists of residual water, methanol and isopropyl acetate. The K-salt is considered dry when <0.05% methanol and isopropyl acetate are detected by ^1 H NMR. The product is further powdered by passing the solid through a Quadro Comil (model 197s, screen size=1143 mm round impeller) to yield 4.5 kg. The product is dried to a TG of 4.6-5.5% by the passage of dry nitrogen over the solid under vacuum at 22° C. After 10 hours, 4.24 kg (78%) of the potassium salt as the form "I" is obtained with a TG of […] (99.7 wt % by titration). The water content can be monitored by TG analysis. The TG of the potassium salt of form "I" is 4.6-5.5%. The crystal form is monitored by X-ray analysis. When the potassium salt is over dried, the crystal form converts to form "Id" (TG<4.6%). […]

A short description of series [3]: Crystal form conversion in acetonitrile, with or without water (XRPD). Particulars: overnight, room temperature, potassium salt; for crystal form after stirring/shaking in acetonitrile: no added water. The text has this:
Since all of the crystal forms of 3-[2'-(N-benzoyl)sulfonamidobiphenyl-4-yl]methyl-5,7-dimethyl-2-ethyl-3H-imidazo[4,5-b]pyridine potassium salt were changed to a single crystal form "D", in water, the effect of a non-aqueous solvent was studied. 3-[2'-(N-benzoyl)sulfonamidobiphenyl-4-yl]methyl-5,7-dimethyl-2-ethyl-3H-imidazo[4,5-b]pyridine potassium salt, Forms "A", "B", "C", and "D" were stirred overnight at room temperature in acetonitrile. The remaining solids were filtered and then vacuum dried overnight at room temperature. The crystallinity of the solids was examined by XRPD spectroscopy.
All of the crystal forms were converted to a single crystal form ("D") in water, but in acetonitrile to two different crystal forms. […] To explore the role of water in the above experiments, 3-[2'-(N-benzoyl)sulfonamidobiphenyl-4-yl]methyl-5,7-dimethyl-2-ethyl-3H-imidazo[4,5-b]pyridine potassium salt, form "C" (an anhydrous crystal form) was this time suspended in acetonitrile with added water (water was 10% of the solid weight). As a control experiment Form "C" was also suspended in acetonitrile with no added water. The samples were shaken overnight at room temperature. The remaining solids were filtered and vacuum dried overnight at room temperature.

The nature of series [4]: Equilibrium solubility in water at room temperature. Particulars: room temperature.
Series [5] in a line: Crystal form stability in water (XRPD of remaining solid). The conditions noted are these: room temperature, potassium salt. From the text:
[13) S. R. Byre. "Solid State Chemistry of Drugs." Academic Press, New York, 1982.] […] Recrystallization of any of these lots from solvents like ethanol, methanol, isopropanol, acetone, etc. gave new crystal forms different from the original forms. […] Solubility in water at room temperature was one of these techniques. The equilibrium solubility in water, at room temperature for five polymorphs (Forms "B", "C", "D", "F", and "G") were the same (Table 1). When the remaining solids were filtered, air dried or vacuum dried overnight at room temperature the XRPD patterns had changed from the initial patterns and all were exactly the same. These experiments indicate that all of the crystal forms converted in water at room temperature to a new crystalline form designated […].
The remaining form "I" solid after equilibrium solubility studies in water was removed by filtration and vacuum dried overnight at room temperature.
After the discovery of form "I", form "D" could no longer be isolated in our laboratory. TGA studies indicate that form "I" of 3-[2'-(N-benzoyl)sulfonamidobiphenyl-4-yl]methyl-5,7-dimethyl-2-ethyl-3H-imidazo[4,5-b]pyridine potassium salt is a dihydrate (FIG. 4).

Regarding `CCc1nc2c(C)cc(C)nc2n1Cc1ccc(-c2ccccc2S(=O)(=O)NC(=O)c2ccccc2)cc1` [Form A, 3-[2'-(N-benzoyl)sulfonamidobiphenyl-4-yl]methyl-5,7-dimethyl-2-ethyl-3H-imidazo[4,5-b]pyridine potassium salt], the “ΔH solution DMSO at 30° C.” value in series [1] (listed as A) amounted to 4.92 ± 0.47 J/g. Moreover, in series [2] (listed as A), the “% Weight Loss (Δ 30-150° C. by TGA)” value amounted to 3.4% and the hydration state entry is “hydrated”. In series [3] (listed as A), the “crystal form after stirring/shaking in acetonitrile” value (“crystal form after stirring/shaking” below) was “converted to a new crystal form ("I"); also recorded: changed to form "I"”.

Consider `CCc1nc2c(C)cc(C)nc2n1Cc1ccc(-c2ccccc2S(=O)(=O)NC(=O)c2ccccc2)cc1` [Form B, 3-[2'-(N-benzoyl)sulfonamidobiphenyl-4-yl]methyl-5,7-dimethyl-2-ethyl-3H-imidazo[4,5-b]pyridine potassium salt], for which, in series [1] (listed as B), the “ΔH solution DMSO at 30° C.” value was found to be 17.78 ± 0.52 J/g. Also, in series [2] (listed as B), the “% Weight Loss (Δ 30-150° C. by TGA)” value was 0.5% and the hydration state result is “anhydrous”. In addition, the “crystal form after stirring/shaking” value in series [3] (listed as B) is “changed to another new form ("J")”. For the same compound, the “equilibrium solubility in water, comparison of five polymorphs” value in series [4] is “the same”.

In the case of `CCc1nc2c(C)cc(C)nc2n1Cc1ccc(-c2ccccc2S(=O)(=O)NC(=O)c2ccccc2)cc1` [Form C, 3-[2'-(N-benzoyl)sulfonamidobiphenyl-4-yl]methyl-5,7-dimethyl-2-ethyl-3H-imidazo[4,5-b]pyridine potassium salt], the “ΔH solution DMSO at 30° C.” value in series [1] (listed as C) is reported as 29.75 ± 0.46 J/g. In addition, in series [2] (listed as C), the “% Weight Loss (Δ 30-150° C. by TGA)” value came to 0.6% and the hydration state result is “anhydrous”. Moreover, the “crystal form after shaking in acetonitrile-water” value in series [3] (acetonitrile with added water, listed as C) is reported as “converted to form "I"”. Besides, the “crystal form after stirring/shaking” value in series [3] (listed as C) was “changed to another new form ("J")”.

For `CCc1nc2c(C)cc(C)nc2n1Cc1ccc(-c2ccccc2S(=O)(=O)NC(=O)c2ccccc2)cc1` [Form F, 3-[2'-(N-benzoyl)sulfonamidobiphenyl-4-yl]methyl-5,7-dimethyl-2-ethyl-3H-imidazo[4,5-b]pyridine potassium salt], in series [5] (listed as F), the “crystal form after suspension in water” value is on record as “converted to form "D"”.

For `CCc1nc2c(C)cc(C)nc2n1Cc1ccc(-c2ccccc2S(=O)(=O)NC(=O)c2ccccc2)cc1` [Form G, 3-[2'-(N-benzoyl)sulfonamidobiphenyl-4-yl]methyl-5,7-dimethyl-2-ethyl-3H-imidazo[4,5-b]pyridine potassium salt], in series [5] (listed as G), the “crystal form after suspension in water” value is reported as “converted to form "D"”. Also, in series [1] (listed as G), the “ΔH solution DMSO at 30° C.” value is listed as 8.51 ± 0.66 J/g. Moreover, in series [2] (listed as G), the “% Weight Loss (Δ 30-150° C. by TGA)” value is listed as 0% and the hydration state result is given as “anhydrous”.

As to `CCc1nc2c(C)cc(C)nc2n1Cc1ccc(-c2ccccc2S(=O)(=O)NC(=O)c2ccccc2)cc1` [Form J, 3-[2'-(N-benzoyl)sulfonamidobiphenyl-4-yl]methyl-5,7-dimethyl-2-ethyl-3H-imidazo[4,5-b]pyridine potassium salt], the “% Weight Loss (Δ 30-150° C. by TGA)” value in series [2] (listed as J) came to 0.7%.
